Assay results reported in ChEMBL document CHEMBL6092203, “Discovery of Novel PROTAC-Based HPK1 Degraders with High Potency and Selectivity for Cancer Immunotherapy” (J Med Chem, 2024).

Legend:
[1] = biological target: Mitogen-activated protein kinase kinase kinase kinase 1 (Homo sapiens, UniProt Q92918); test: Inhibition of HPK1 (unknown origin)
[2] = biological target: T1, Mitogen-activated protein kinase kinase kinase kinase 3 (Homo sapiens, UniProt Q8IVH8); test: Inhibition of GLK (unknown origin)
T1 sequence (Q8IVH8 whole entry): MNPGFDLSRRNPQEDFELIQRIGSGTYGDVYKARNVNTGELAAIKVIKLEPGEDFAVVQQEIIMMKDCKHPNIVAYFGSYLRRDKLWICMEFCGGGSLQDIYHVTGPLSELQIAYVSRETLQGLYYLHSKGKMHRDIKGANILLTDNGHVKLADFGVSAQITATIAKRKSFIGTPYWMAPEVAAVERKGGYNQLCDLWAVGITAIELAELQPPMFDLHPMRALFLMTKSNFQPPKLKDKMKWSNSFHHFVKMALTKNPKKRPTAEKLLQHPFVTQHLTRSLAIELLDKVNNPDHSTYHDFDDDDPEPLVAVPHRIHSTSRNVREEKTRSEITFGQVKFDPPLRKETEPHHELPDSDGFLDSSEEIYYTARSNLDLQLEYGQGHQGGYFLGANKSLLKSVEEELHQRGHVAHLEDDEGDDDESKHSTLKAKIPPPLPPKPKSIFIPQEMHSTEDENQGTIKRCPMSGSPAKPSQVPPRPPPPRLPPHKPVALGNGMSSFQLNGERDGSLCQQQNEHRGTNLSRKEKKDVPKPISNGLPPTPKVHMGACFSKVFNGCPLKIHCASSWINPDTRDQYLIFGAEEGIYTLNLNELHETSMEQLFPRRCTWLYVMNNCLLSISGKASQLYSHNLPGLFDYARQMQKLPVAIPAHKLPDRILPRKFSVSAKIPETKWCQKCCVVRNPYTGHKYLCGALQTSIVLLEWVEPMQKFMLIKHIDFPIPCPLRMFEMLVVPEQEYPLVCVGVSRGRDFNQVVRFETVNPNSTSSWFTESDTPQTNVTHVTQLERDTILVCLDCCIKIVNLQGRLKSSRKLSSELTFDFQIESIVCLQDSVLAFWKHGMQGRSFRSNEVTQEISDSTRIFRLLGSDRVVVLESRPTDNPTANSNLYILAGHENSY

[3] = biological target: T2, Protein cereblon/Mitogen-activated protein kinase kinase kinase kinase 1 (Homo sapiens, UniProt Q92918+Q96SW2); test: PROTAC activity at CRBN/HPK1 in human Jurkat cells incubated for 24 hrs by Western blotting analysis; assay type: cell-based
Target sequence in this assay (Q92918 whole entry): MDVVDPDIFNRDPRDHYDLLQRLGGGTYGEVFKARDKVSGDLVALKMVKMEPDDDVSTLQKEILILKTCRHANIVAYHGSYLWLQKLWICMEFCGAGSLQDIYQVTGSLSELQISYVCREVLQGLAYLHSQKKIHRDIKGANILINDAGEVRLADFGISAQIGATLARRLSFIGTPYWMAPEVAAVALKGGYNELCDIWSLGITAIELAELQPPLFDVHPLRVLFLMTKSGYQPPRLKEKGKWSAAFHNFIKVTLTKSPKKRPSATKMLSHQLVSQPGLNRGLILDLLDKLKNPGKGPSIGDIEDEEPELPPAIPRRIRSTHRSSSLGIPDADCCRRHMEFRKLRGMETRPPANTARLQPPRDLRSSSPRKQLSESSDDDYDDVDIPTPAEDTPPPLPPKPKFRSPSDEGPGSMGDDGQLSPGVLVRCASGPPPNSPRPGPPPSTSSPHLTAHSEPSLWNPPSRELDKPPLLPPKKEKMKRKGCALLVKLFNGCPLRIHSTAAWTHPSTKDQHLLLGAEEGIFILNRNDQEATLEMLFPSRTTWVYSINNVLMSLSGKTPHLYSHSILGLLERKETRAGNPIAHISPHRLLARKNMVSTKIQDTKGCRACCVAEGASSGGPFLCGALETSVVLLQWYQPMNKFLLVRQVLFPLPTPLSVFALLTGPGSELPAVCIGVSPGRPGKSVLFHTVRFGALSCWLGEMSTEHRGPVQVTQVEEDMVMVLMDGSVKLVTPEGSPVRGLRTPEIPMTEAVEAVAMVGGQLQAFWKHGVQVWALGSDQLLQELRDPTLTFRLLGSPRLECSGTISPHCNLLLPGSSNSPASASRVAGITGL
Target sequence in this assay (Q96SW2 whole entry): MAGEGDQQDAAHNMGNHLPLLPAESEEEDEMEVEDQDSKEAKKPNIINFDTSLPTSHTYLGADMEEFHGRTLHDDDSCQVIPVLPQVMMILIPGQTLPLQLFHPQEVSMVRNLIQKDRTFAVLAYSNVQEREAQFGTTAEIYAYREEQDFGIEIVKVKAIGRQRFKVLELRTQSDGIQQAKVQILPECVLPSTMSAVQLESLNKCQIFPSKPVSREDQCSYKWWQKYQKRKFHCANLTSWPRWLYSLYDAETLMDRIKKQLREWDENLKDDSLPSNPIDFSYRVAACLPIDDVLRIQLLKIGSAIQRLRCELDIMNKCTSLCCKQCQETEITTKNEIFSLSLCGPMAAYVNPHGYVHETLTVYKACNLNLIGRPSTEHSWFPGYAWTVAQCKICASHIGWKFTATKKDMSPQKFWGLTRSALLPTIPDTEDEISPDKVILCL

[4] = biological target: T2, Protein cereblon/Mitogen-activated protein kinase kinase kinase kinase 1; test: PROTAC activity at CRBN/HPK1 in human Jurkat cells assessed as maximum degradation incubated for 24 hrs by Western blotting analysis; assay type: cell-based
Target sequence in this assay (Q92918 whole entry, looked up): as the sequence (Q92918 whole entry) above
Target sequence in this assay (Q96SW2 whole entry, looked up): as the sequence (Q96SW2 whole entry) above

[5] = Clearance in mouse at 2 mg/kg, iv measured upto 24 hrs by LC-MS analysis; assay type: ADME, organism-based; details: in vivo
[6] = AUC in mouse at 2 mg/kg, iv measured upto 24 hrs by LC-MS analysis; assay type: ADME, organism-based; details: in vivo
[7] = Apparent volume of distribution in mouse at 2 mg/kg, iv measured upto 24 hrs by LC-MS analysis; assay type: ADME, organism-based; details: in vivo
[8] = Half-life in mouse at 2 mg/kg, iv measured upto 24 hrs by LC-MS analysis; assay type: ADME, organism-based; details: in vivo
[9] = Cmax in mouse at 10 mg/kg, po measured upto 24 hrs by LC-MS analysis; assay type: ADME, organism-based; details: in vivo
[10] = AUC in mouse at 10 mg/kg, po measured upto 24 hrs by LC-MS analysis; assay type: ADME, organism-based; details: in vivo
[11] = Oral bioavailability in mouse at 10 mg/kg measured upto 24 hrs by LC-MS analysis; assay type: ADME, organism-based; details: in vivo
[12] = Half-life in mouse at 10 mg/kg measured upto 24 hrs by LC-MS analysis; assay type: ADME, organism-based; details: in vivo

Mitogen-activated protein kinase kinase kinase kinase 1, sequence (Q92918 whole entry): as the sequence (Q92918 whole entry) above

SMILES | DC50 [3] [nM] | Emax [4] [%] | also measured
CCN1CCC(n2cc(-c3c[nH]c4ncc(-c5cnc(OCC6CCOCC6)c(F)c5)nc34)cn2)CC1 | – | – | IC50 [1]: 2.67 nM; IC50 [2]: 63.6 nM
O=C1CCN(c2cc(C(=O)N3CCC(CC4CCN(c5ccc(-c6cnc7[nH]cc(-c8cnn(CC(F)F)c8)c7n6)cn5)CC4)CC3)ccc2Cl)C(=O)N1 | 18.7 | 81 | –
COCCn1cc(-c2c[nH]c3ncc(-c4ccc(N5CCC(CC6CCN(C(=O)c7ccc(Cl)c(N8CCC(=O)NC8=O)c7)CC6)CC5)nc4)nc23)cn1 | 30.6 | 76 | –
CCN1CCC(n2cc(-c3c[nH]c4ncc(-c5cnc(OCCNC(=O)c6ccc(Cl)c(N7CCC(=O)NC7=O)c6)c(C)c5)nc34)cn2)CC1 | 55 | 86 | –
CCN1CCC(n2cc(-c3c[nH]c4ncc(-c5ccc(N6CCC(OC7CCN(C(=O)c8ccc(Cl)c(N9CCC(=O)NC9=O)c8)CC7)CC6)cc5)nc34)cn2)CC1 | 386 | 52 | –
O=C1CCN(c2cc(C(=O)N3CCC(CC4CCN(c5ccc(-c6cnc7[nH]cc(-c8cnn(CCF)c8)c7n6)cn5)CC4)CC3)ccc2Cl)C(=O)N1 | 5.3 | 78 | clearance [5]: 4.5 mL/min/kg; AUC at 24 h [6]: 7400 ng·h/mL; Vz [7]: 0.917 L/kg; half-life [8]: 2.35 h; Cmax [9]: 4680 ng/mL; AUC at 24 h [10]: 9200 ng·h/mL; bioavailability [11]: 25.1%; half-life [12]: 3.18 h
CCN1CCC(n2cc(-c3c[nH]c4ncc(-c5ccc(N6CCC(OC7CCN(C(=O)c8ccc(Cl)c(N9CCC(=O)NC9=O)c8)CC7)CC6)c(F)c5)nc34)cn2)CC1 | 7.2 | 78 | –
O=C1CCN(c2cc(C(=O)N3CCC(CC4CCN(c5ccc(-c6cnc7[nH]cc(-c8cnn(CCO)c8)c7n6)cn5)CC4)CC3)ccc2Cl)C(=O)N1 | 29 | 84 | –
CCN1CCC(n2cc(-c3c[nH]c4ncc(-c5ccc(N6CCC(C)(CN7CCN(C(=O)c8ccc(Cl)c(N9CCC(=O)NC9=O)c8)CC7)CC6)cc5)nc34)cn2)CC1 | 52.4 | 81 | –
O=C1CCN(c2cc(C(=O)N3CCC(CC4CCN(c5ccc(-c6cnc7[nH]cc(-c8cn[nH]c8)c7n6)cn5)CC4)CC3)ccc2Cl)C(=O)N1 | 32.9 | 92 | –
CCN1CCC(n2cc(-c3c[nH]c4ncc(-c5ccc(N6CCC(OC7CCN(C(=O)c8ccc(Cl)c(N9CCC(=O)NC9=O)c8)CC7)CC6)c(C)c5)nc34)cn2)CC1 | 29.3 | 73 | –
CC(C)(C#N)n1cc(-c2c[nH]c3ncc(-c4ccc(N5CCC(CC6CCN(C(=O)c7ccc(Cl)c(N8CCC(=O)NC8=O)c7)CC6)CC5)nc4)nc23)cn1 | 214 | 64 | –
O=C1CCN(c2cc(C(=O)N3CCC(CC4CCN(c5ccc(-c6cnc7[nH]cc(-c8cnn(C(F)F)c8)c7n6)cn5)CC4)CC3)ccc2Cl)C(=O)N1 | 23.9 | 67 | –
CCN1CCC(n2cc(-c3c[nH]c4ncc(-c5ccc(N6CCC(F)(CN7CCN(C(=O)c8ccc(Cl)c(N9CCC(=O)NC9=O)c8)CC7)CC6)cc5)nc34)cn2)CC1 | 230 | 58 | –
[2H]C([2H])([2H])n1cc(-c2c[nH]c3ncc(-c4ccc(N5CCC(CC6CCN(C(=O)c7ccc(Cl)c(N8CCC(=O)NC8=O)c7)CC6)CC5)nc4)nc23)cn1 | 12.7 | – | –

Second part, led by results:

DC50 [3] [nM] | Emax [4] [%] | SMILES | also measured
632 | 52 | O=C1CCN(c2cc(C(=O)N3CCC(CC4CCN(c5ccc(-c6cnc7[nH]cc(-c8cnn(CC9CC9)c8)c7n6)cn5)CC4)CC3)ccc2Cl)C(=O)N1 | –
616 | 53 | CCN1CCC(n2cc(-c3c[nH]c4ncc(-c5ccc(N6CCC(CC7CCN(C(=O)c8ccc(C)c(N9CCC(=O)NC9=O)c8)CC7)CC6)cc5)nc34)cn2)CC1 | –
29.2 | 87 | CCn1cc(-c2c[nH]c3ncc(-c4ccc(N5CCC(CC6CCN(C(=O)c7ccc(Cl)c(N8CCC(=O)NC8=O)c7)CC6)CC5)nc4)nc23)cn1 | –
1.2 | 93 | CCN1CCC(n2cc(-c3c[nH]c4ncc(-c5ccc(N6CCC(CC7CCN(C(=O)c8ccc(Cl)c(N9CCC(=O)NC9=O)c8)CC7)CC6)nc5)nc34)cn2)CC1 | clearance [5]: 27.5 mL/min/kg; AUC at 24 h [6]: 874 ng·h/mL; Vz [7]: 1.03 L/kg; half-life [8]: 4.63 h; Cmax [9]: 81.6 ng/mL; AUC at 24 h [10]: 295 ng·h/mL; bioavailability [11]: 6.67%
23.5 | 66 | CCN1CCC(n2cc(-c3c[nH]c4ncc(-c5ccc(N6CCC(CC7CCN(C(=O)c8ccc(Cl)c(N9CCC(=O)NC9=O)c8)CC7C)CC6)cc5)nc34)cn2)CC1 (stereo not given) | –
2.1 | 77 | CCN1CCC(n2cc(-c3c[nH]c4ncc(-c5ccc(N6CCC(CN7CCN(C(=O)c8ccc(Cl)c(N9CCC(=O)NC9=O)c8)CC7)CC6)nc5)nc34)cn2)CC1 | –
52.3 | 87 | O=C1CCN(c2cc(C(=O)N3CCC(CC4CCN(c5ccc(-c6cnc7[nH]cc(-c8cnn(C9CC9)c8)c7n6)cn5)CC4)CC3)ccc2Cl)C(=O)N1 | –
83 | 84 | O=C1CCN(c2cc(C(=O)N3CCC(CC4CCN(c5ccc(-c6cnc7[nH]cc(-c8cnn([C@@H]9CCOC9)c8)c7n6)cn5)CC4)CC3)ccc2Cl)C(=O)N1 | –
176 | 63 | CCN1CCC(n2cc(-c3c[nH]c4ncc(-c5ccc(N6CCC(CC7CCN(C(=O)c8ccc(Cl)c(N9CCC(=O)NC9=O)c8)CC7)CC6)c(F)c5)nc34)cn2)CC1 | –
385 | 56 | CCN1CCC(n2cc(-c3c[nH]c4ncc(-c5ccc(N6CCC(CC7CCCN(C(=O)c8ccc(Cl)c(N9CCC(=O)NC9=O)c8)CC7)CC6)nc5)nc34)cn2)CC1 (stereo not given) | –
9.3 | 93 | Cn1cc(-c2c[nH]c3ncc(-c4ccc(N5CCC(CC6CCN(C(=O)c7ccc(Cl)c(N8CCC(=O)NC8=O)c7)CC6)CC5)nc4)nc23)cn1 | Emax ([4]; tested as the 2H-labelled form): 89%; clearance [5]: 8.27 mL/min/kg; AUC at 24 h [6]: 4030 ng·h/mL; Vz [7]: 0.701 L/kg; half-life [8]: 0.98 h; Cmax [9]: 840 ng/mL; AUC at 24 h [10]: 2210 ng·h/mL; bioavailability [11]: 17.7%; half-life [12]: 3.35 h
